Structures can show the parent of a compound that is named as a salt. Where two headings read alike, the source gives them in different places.

Holding throughout (type): cell-based
The target of test [1] is T1, human dopamine transporter (Homo sapiens, UniProt Q01959).
T1 construct: expressed in transfected cells
As to the kind of experiment: Inhibitory action on human dopamine transporter ([3H]-dopamine uptake in CHO cells). Particulars: CHO, compound 1 μM; relative to inhibitory activity of 100 μM Nomifensine as 100%; read-out: inhibitory rate (%). An outline of the steps:
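CHO-K1 cells stably expressing human dopamine transporter, exposed to compound at 10 μM or 1 μM in HEPES-buffered saline with 0.5% BSA. [3H]-dopamine uptake measured over 60 min by scintillation counting. Activity expressed relative to 100 μM nomifensine as 100%.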

In test [2] the target is T2, human norepinephrine transporter (Homo sapiens, UniProt P23975).
T2 construct: expressed in transfected cells
The test can be described thus: Inhibitory action on human norepinephrine transporter ([3H]-norepinephrine uptake in CHO cells). Particulars: CHO, relative to inhibitory activity of 10 μM DMI as 100%. An outline of the steps: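 Stably transfected CHO-K1 cells plated overnight, then given test compound and [3H]-norepinephrine (20 nM final, from 200 nM) in HEPES-buffered saline with 0.5% BSA for 45 min. After PBS washes, retained radioactivity counted by scintillation. Inhibition at 10 μM or 1 μM compound expressed relative to 10 μM DMI as 100%.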

The target in test [3] is T3, human serotonin transporter (Homo sapiens, UniProt P31645).
T3 construct: expressed in transfected cells
The test can be described thus: Inhibitory action on human serotonin transporter ([3H]-5-hydroxytryptamine uptake in CHO cells). Particulars: CHO, compound 1 μM; relative to inhibitory activity of 10 μM Paroxetine as 100%; read-out: inhibitory rate (%). An outline of the steps: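 CHO-K1 cells stably expressing human SERT, plated overnight, took up [3H]-5-HT (diluted to 200 nM before a 1:10 addition) for 20 min in HEPES-buffered saline with glucose and 0.5% BSA; radioactivity counted by scintillation. Compounds at 10 μM or 1 μM, activity expressed relative to 10 μM paroxetine set as 100%.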

[4] abbreviates: compound 1 μM, read-out: inhibitory rate (%).
Where [5] appears, read: read-out: inhibitory rate (%), compound 1 μM.

T2 sequence (P23975 whole entry): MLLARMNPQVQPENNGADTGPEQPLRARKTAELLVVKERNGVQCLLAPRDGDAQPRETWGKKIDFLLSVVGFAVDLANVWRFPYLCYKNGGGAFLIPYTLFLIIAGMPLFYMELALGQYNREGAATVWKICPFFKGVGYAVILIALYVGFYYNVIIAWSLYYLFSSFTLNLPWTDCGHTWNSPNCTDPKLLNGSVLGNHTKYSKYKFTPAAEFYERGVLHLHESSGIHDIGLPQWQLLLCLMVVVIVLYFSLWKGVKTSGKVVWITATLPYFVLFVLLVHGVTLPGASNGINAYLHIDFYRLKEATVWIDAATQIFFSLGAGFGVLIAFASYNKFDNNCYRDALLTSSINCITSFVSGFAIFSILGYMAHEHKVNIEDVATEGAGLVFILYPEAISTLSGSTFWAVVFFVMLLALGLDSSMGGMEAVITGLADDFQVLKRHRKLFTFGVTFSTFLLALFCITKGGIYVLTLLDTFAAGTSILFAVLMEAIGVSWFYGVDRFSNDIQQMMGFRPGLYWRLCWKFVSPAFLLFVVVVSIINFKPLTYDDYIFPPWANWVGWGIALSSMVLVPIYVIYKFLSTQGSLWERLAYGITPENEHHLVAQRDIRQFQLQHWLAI
T1 sequence (Q01959 whole entry): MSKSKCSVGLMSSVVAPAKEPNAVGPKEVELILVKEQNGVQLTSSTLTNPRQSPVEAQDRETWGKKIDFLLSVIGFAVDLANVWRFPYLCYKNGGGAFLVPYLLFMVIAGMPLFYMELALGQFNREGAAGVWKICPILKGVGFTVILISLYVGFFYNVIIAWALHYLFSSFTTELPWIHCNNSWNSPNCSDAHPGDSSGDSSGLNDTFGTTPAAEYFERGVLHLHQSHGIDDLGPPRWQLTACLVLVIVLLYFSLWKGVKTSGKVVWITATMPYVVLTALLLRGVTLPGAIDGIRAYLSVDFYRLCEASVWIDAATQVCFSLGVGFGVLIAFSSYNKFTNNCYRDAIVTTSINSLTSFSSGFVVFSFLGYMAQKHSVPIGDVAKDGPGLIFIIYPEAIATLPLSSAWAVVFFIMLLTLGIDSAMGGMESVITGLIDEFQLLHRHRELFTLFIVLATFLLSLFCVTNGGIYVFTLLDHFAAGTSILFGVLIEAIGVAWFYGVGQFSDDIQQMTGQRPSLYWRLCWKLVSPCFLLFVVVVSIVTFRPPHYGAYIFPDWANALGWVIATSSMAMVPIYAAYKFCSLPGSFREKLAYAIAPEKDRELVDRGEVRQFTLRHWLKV
T3 sequence (P31645 whole entry): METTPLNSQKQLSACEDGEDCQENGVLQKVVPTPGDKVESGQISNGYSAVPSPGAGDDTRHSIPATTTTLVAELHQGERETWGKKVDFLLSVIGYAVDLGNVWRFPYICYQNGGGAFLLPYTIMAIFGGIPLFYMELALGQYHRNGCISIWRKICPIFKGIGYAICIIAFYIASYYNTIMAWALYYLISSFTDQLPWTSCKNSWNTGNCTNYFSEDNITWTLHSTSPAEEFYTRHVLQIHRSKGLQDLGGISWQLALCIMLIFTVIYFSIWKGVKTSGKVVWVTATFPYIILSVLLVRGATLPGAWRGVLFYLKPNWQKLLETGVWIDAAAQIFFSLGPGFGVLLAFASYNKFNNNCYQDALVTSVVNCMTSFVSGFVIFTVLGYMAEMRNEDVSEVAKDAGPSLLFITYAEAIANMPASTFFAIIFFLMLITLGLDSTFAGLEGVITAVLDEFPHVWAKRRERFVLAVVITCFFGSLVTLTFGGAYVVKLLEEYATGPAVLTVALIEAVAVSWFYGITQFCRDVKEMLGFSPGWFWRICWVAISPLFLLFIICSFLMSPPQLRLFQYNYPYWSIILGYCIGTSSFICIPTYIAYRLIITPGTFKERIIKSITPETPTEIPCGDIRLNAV

As for `O=c1nc(-c2ccccc2S(=O)(=O)C[C@@H]2CNCCO[C@H]2c2ccc(Cl)c(Cl)c2)[nH]o1` [Example 167, 3-[2-({[(6R,7R)-7-(3,4-dichlorophenyl)-1,4-oxazepan-6-yl]methyl}sulfonyl)phenyl]-1,2,4-oxadiazol-5(2H)-one monohydrochloride], the inhibition at 1 µM in test [1] stood at 88%; in test [2] (setting [4]), 103%; in test [3], 93%.
The corresponding values for `O=C(O)c1cccnc1NC[C@@H]1CNCCO[C@H]1c1ccc(Cl)c(Cl)c1` [Example 176, 2-({[(6S,7R)-7-(3,4-dichlorophenyl)-1,4-oxazepan-6-yl]methyl}amino)pyridine-3-carboxylic acid monohydrochloride] are 20%, 101% and 80%.
For the compound `O=C(O)c1ccnn1C[C@@H]1CNCCO[C@H]1c1ccc(Cl)c(Cl)c1` [Example 181, 1-{[(6S,7R)-7-(3,4-dichlorophenyl)-1,4-oxazepan-6-yl]methyl}-1H-pyraole-5-carboxylic acid monohydrochloride], the inhibition at 1 µM worked out at 39% in test [1], 100% in test [2] (setting [4]) and 87% in test [3].
With `Cc1cc(C(=O)O)nn1C[C@@H]1CNCCO[C@H]1c1ccc(Cl)c(Cl)c1` [Example 187, 1-{[(6S,7R)-7-(3,4-dichlorophenyl)-1,4-oxazepan-6-yl]methyl}-5-methyl-1H-pyrazole-3-carboxylic acid monohydrochloride], the inhibition at 1 µM stood at 53% in test [1], 101% in test [2] (setting [4]) and 86% in test [3].
The corresponding values for `O=c1[nH]c(-c2csc(C[C@@H]3CNCCO[C@H]3c3ccc(Cl)c(Cl)c3)n2)no1` [Example 199, 3-(2-{[(6R,7R)-7-(3,4-dichlorophenyl)-1,4-oxazepan-6-yl]methyl}-1,3-thiazol-4-yl)-1,2,4-oxadiazol-5(4H)-one monohydrochloride] are 66%, 99% and 100%.
As for `O=c1[nH]c(-c2ccnn(C[C@@H]3CNCCO[C@H]3c3ccc(Cl)c(Cl)c3)c2=O)no1` [Example 209, 2-{[(6S,7R)-7-(3,4-dichlorophenyl)-1,4-oxazepan-6-yl]methyl}-4-(5-oxo-4,5-dihydro-1,2,4-oxadiazol-3-yl)pyridazin-3(2H)-one monohydrochloride], the inhibition at 1 µM in test [1] was determined as 71%; in test [2] (setting [5]) it was 101%; in test [3], 97%.
Consider `OCCC[C@@H]1CNCCO[C@H]1c1ccc(Cl)c(Cl)c1` [Example 212, 3-[(6R,7R)-7-(3,4-dichlorophenyl)-1,4-oxazepan-6-yl]propan-1-ol monohydrochloride], for which the values for the inhibition at 1 µM in test [1], in test [2] (setting [4]) and in test [3] were 94%, 103% and 98%, respectively.
The corresponding values for `CC(=O)[C@@H]1CNCCO[C@H]1c1ccc(Cl)c(Cl)c1` [Example 216, 1-[(6R,7R)-7-(3,4-dichlorophenyl)-1,4-oxazepan-6-yl]ethanone monohydrochloride] are 3%, 94% and 42%.
The corresponding values for `CC(=O)N[C@H]1CNCCO[C@@H]1c1ccc(Cl)c(Cl)c1` [Example 240, N-[(6S,7R)-7-(3,4-dichlorophenyl)-1,4-oxazepan-6-yl]acetamide monohydrochloride] are 60%, 105% and 94%.
The corresponding values for `NC(=O)N[C@@H]1CNCCO[C@H]1c1ccc(Cl)c(Cl)c1` [Example 262, 1-[(6R,7S)-7-(3,4-dichlorophenyl)-1,4-oxazepan-6-yl]urea monohydrochloride] are 52%, 98% and 71%.
Take `CS(=O)(=O)N[C@@H]1CNCCO[C@H]1c1ccc(Cl)c(Cl)c1` [Example 265, N-[(6R,7S)-7-(3,4-dichlorophenyl)-1,4-oxazepan-6-yl]methanesulfonamide monohydrochloride]: the inhibition at 1 µM in test [1] is 72%; in test [2] (setting [4]) it was 102%; in test [3], 79%.
For the compound `CS(=O)(=O)N[C@H]1CNCCO[C@@H]1c1ccc(Cl)c(Cl)c1` [Example 266, N-[(6S,7R)-7-(3,4-dichlorophenyl)-1,4-oxazepan-yl]methanesulfonamide monohydrochloride], the inhibition at 1 µM in test [1] was 76%; in test [2] (setting [4]), 103%; in test [3] it was 82%.
Consider `O=C1CN([C@@H]2CNCCO[C@H]2c2ccc(Cl)c(Cl)c2)C(=O)N1` [Example 276, 1-[(6R,7S)-7-(3,4-dichlorophenyl)-1,4-oxazepan-6-yl]imidazolidine-2,4-dione monohydrochloride], for which the figures for the inhibition at 1 µM in test [1], in test [2] (setting [4]) and in test [3] were 94%, 103% and 87%, respectively.
Consider `OC[C@@H]1CNCCO[C@H]1c1ccc(F)c(Cl)c1` [Example 284, [(6S,7R)-7-(3-chloro-4-fluorophenyl)-1,4-oxazepan-6-yl]methanol monofumarate], for which the inhibition at 1 µM in test [1] was determined as 11%; in test [2] (setting [5]), 96%; in test [3], 34%.
With `OC[C@H]1CNCCO[C@@H]1c1ccc(F)c(Cl)c1` [Example 285, [(6R,7S)-7-(3-chloro-4-fluorophenyl)-1,4-oxazepan-6-yl]methanol 0.5 fumarate], the inhibition at 1 µM in test [1] is 19%; in test [2] (setting [4]) it was 94%; in test [3], 79%.
The corresponding values for `OC[C@@H]1CNCCO[C@H]1c1ccc(Cl)c(F)c1` [Example 301, [(6S,7R)-7-(4-chloro-3-fluorophenyl)-1,4-oxazepan-6-yl]methanol monohydrochloride] are 10%, 100% and 52%.
The corresponding values for `OC[C@H]1CNCCO[C@@H]1c1ccc(Cl)c(F)c1` [Example 302, [(6R,7S)-7-(4-chloro-3-fluorophenyl)-1,4-oxazepan-6-yl]methanol monohydrochloride] are 12%, 98% and 73%.
The corresponding values for `O=C(CC(F)(F)F)NC[C@@H]1CNCCO[C@H]1c1ccc(Cl)c(F)c1` [Example 314, N-{[(6S,7R)-7-(4-chloro-3-fluorophenyl)-1,4-oxazepan-6-yl]methyl}-3,3,3-trifluoropropanamide monohydrochloride] are 11%, 104% and 49%.
As for `O=C(CO)NC[C@@H]1CNCCO[C@H]1c1ccc(Cl)c(F)c1` [Example 315, N-{[(6S,7R)-7-(4-chloro-3-fluorophenyl)-1,4-oxazepan-6-yl]methyl}-2-hydroxyacetamide monohydrochloride], the inhibition at 1 µM was 13% in test [1], 105% in test [2] (setting [4]) and 43% in test [3].
For `O=C(NC[C@@H]1CNCCO[C@H]1c1ccc(Cl)c(F)c1)c1cc(-c2noc(=O)[nH]2)ccc1F` [Example 357, N-{[(6S,7R)-7-(4-chloro-3-fluorophenyl)-1,4-oxazepan-6-yl]methyl}-2-fluoro-5-(5-oxo-4,5-dihydro-1,2,4-oxadiazol-3-yl)benzamide monohydrochloride], the inhibition at 1 µM was determined as 19% in test [1], 103% in test [2] (setting [4]) and 102% in test [3].
For `O=C(NC[C@@H]1CNCCO[C@H]1c1ccc(Cl)c(F)c1)c1ccc[nH]c1=O` [Example 367, N-{[(6S,7R)-7-(4-chloro-3-fluorophenyl)-1,4-oxazepan-6-yl]methyl}-2-oxo-1,2-dihydropyridine-3-carboxamide monohydrochloride], the inhibition at 1 µM in test [1] came to 57%; in test [2] (setting [4]) it was 103%; in test [3], 99%.
In the case of `O=C1NCCCN1C[C@@H]1CNCCO[C@H]1c1ccc(Cl)c(F)c1` [Example 372, 1-{[(6S,7R)-7-(4-chloro-3-fluorophenyl)-1,4-oxazepan-6-yl]methyl}tetrahydropyrimidin-2(1H)-one monohydrochloride], the values for the inhibition at 1 µM in test [1], in test [2] (setting [5]) and in test [3] were 97%, 103% and 98%, respectively.
For `O=C1CCCCN1C[C@@H]1CNCCO[C@H]1c1ccc(Cl)c(F)c1` [Example 376, 1-{[(6S,7R)-7-(4-chloro-3-fluorophenyl)-1,4-oxazepan-6-yl]methyl}piperidin-2-one monohydrochloride], the inhibition at 1 µM is 89% in test [1], 102% in test [2] (setting [4]) and 98% in test [3].

The values above are taken from patent publication US20130267494A1, “1,4-OXAZEPANE DERIVATIVES” (priority 2010, published 2013).
